Key:
Carboplatin = compound: C1CC(C1)(C(=O)[O-])C(=O)[O-].N.N.[Pt+2] [Carboplatin]; conditions: max 10 µM
Procedure, shortened: (§1)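 Cancer cell lines were seeded in 1536-well plates in 7.5 μl DMEM/F12 or RPMI with 10% FBS, held 24 hours at 37°C and 5% CO2, then dosed for 72 hours (final DMSO typically 0.2%). Viability was read by CellTiter-Glo 2.0 luminescence and scaled between blank-well and DMSO-well means. The single-agent IC50 comes from dose responses fitted to a two-parameter logistic curve with a non-linear mixed effects model.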

AZD5363 = compound: C1CN(CCC1(C(=O)N[C@@H](CCO)C2=CC=C(C=C2)Cl)N)C3=NC=NC4=C3C=CN4 [AZD5363]; conditions: max 10 µM
Procedure, shortened: as §1

AZD1775 = compound: C=CCn1c(=O)c2cnc(Nc3ccc(N4CCN(C)CC4)cc3)nc2n1-c1cccc(C(C)(C)O)n1 [AZD1775]; conditions: max 3 µM
Procedure, shortened: as §1

Trametinib = compound: CC(=O)Nc1cccc(-n2c(=O)n(C3CC3)c(=O)c3c(Nc4ccc(I)cc4F)n(C)c(=O)c(C)c32)c1 [Trametinib]; conditions: max 1 µM
Procedure, shortened: as §1

Paclitaxel = compound: CC(=O)O[C@H]1C(=O)[C@@]2(C)[C@H]([C@H](OC(=O)c3ccccc3)[C@]3(O)C[C@H](OC(=O)[C@H](O)[C@@H](NC(=O)c4ccccc4)c4ccccc4)C(C)=C1C3(C)C)[C@]1(OC(C)=O)CO[C@@H]1C[C@@H]2O [Paclitaxel]; conditions: max 3 µM
Procedure, shortened: as §1

Palbociclib = compound: CC(=O)c1c(C)c2cnc(Nc3ccc(N4CCNCC4)cn3)nc2n(C2CCCC2)c1=O [Palbociclib]; conditions: max 10 µM
Procedure, shortened: as §1

AZD1390 = compound: CC(C)n1c(=O)n(C)c2cnc3cc(F)c(-c4ccc(OCCCN5CCCCC5)nc4)cc3c21 [AZD1390]; conditions: max 0.3 µM
Procedure, shortened: as §1

Venetoclax = compound: CC1(C)CCC(CN2CCN(c3ccc(C(=O)NS(=O)(=O)c4ccc(NCC5CCOCC5)c([N+](=O)[O-])c4)c(Oc4cnc5[nH]ccc5c4)c3)CC2)=C(c2ccc(Cl)cc2)C1 [Venetoclax]; conditions: max 1 µM
Procedure, shortened: as §1

Dasatinib = compound: CC1=C(C(=CC=C1)Cl)NC(=O)C2=CN=C(S2)NC3=CC(=NC(=N3)C)N4CCN(CC4)CCO [Dasatinib]; conditions: max 2 µM
Procedure, shortened: as §1

SG3199 = compound: CC1=CN2[C@@H](C1)C=NC3=CC(=C(C=C3C2=O)OC)OCCCCCOC4=C(C=C5C(=C4)N=C[C@@H]6CC(=CN6C5=O)C)OC [SG3199]; conditions: max 0.001 µM
Procedure, shortened: as §1

AZD2811 = compound: CCN(CCO)CCCOc1ccc2c(Nc3cc(CC(=O)Nc4cccc(F)c4)[nH]n3)ncnc2c1 [AZD2811]; conditions: max 1 µM
Procedure, shortened: as §1

SN-38 = compound: CCc1c2c(nc3ccc(O)cc13)-c1cc3c(c(=O)n1C2)COC(=O)[C@]3(O)CC [SN-38]; conditions: max 0.3 µM
Procedure, shortened: as §1

AZD0156 = compound: CN(C)CCCOc1ccc(-c2ccc3ncc4c(c3c2)n(C2CCOCC2)c(=O)n4C)cn1 [AZD0156]; conditions: max 3 µM
Procedure, shortened: as §1

AZD4320 = compound: CN(CC[C@H](CSC1=CC=CC=C1)NC2=C(C=C(C=C2)S(=O)(=O)NC(=O)C3=CC=C(C=C3)N4CCC(CC4)[C@H](C5=CC=CC=C5C6=CC=C(C=C6)Cl)O)S(=O)(=O)C(F)(F)F)CCO [AZD4320]; conditions: max 1 µM
Procedure, shortened: as §1

Alisertib = compound: COc1cc(Nc2ncc3c(n2)-c2ccc(Cl)cc2C(c2c(F)cccc2OC)=NC3)ccc1C(=O)O [Alisertib]; conditions: max 10 µM
Procedure, shortened: as §1

Etoposide = compound: COc1cc([C@@H]2c3cc4c(cc3[C@@H](O[C@@H]3O[C@@H]5CO[C@@H](C)O[C@H]5[C@H](O)[C@H]3O)[C@H]3COC(=O)[C@H]23)OCO4)cc(OC)c1O [Etoposide]; conditions: max 10 µM
Procedure, shortened: as §1

Gefitinib = compound: COc1cc2ncnc(Nc3ccc(F)c(Cl)c3)c2cc1OCCCN1CCOCC1 [Gefitinib]; conditions: max 10 µM
Procedure, shortened: as §1

Prexasertib = compound: COc1cccc(OCCCN)c1-c1cc(Nc2cnc(C#N)cn2)n[nH]1 [Prexasertib]; conditions: max 1 µM
Procedure, shortened: as §1

Doxorubicin = compound: COc1cccc2c1C(=O)c1c(O)c3c(c(O)c1C2=O)C[C@@](O)(C(=O)CO)C[C@@H]3O[C@H]1C[C@H](N)[C@H](O)[C@H](C)O1 [Doxorubicin]; conditions: max 1 µM
Procedure, shortened: as §1

AZD5153 = compound: COc1nnc2ccc(N3CCC(c4ccc(OCCN5CCN(C)C(=O)[C@H]5C)cc4)CC3)nn12 [AZD5153]; conditions: max 1 µM
Procedure, shortened: as §1

Lapatinib = compound: CS(=O)(=O)CCNCc1ccc(-c2ccc3ncnc(Nc4ccc(OCc5cccc(F)c5)c(Cl)c4)c3c2)o1 [Lapatinib]; conditions: max 10 µM
Procedure, shortened: as §1

AZD8186 = compound: C[C@@H](Nc1cc(F)cc(F)c1)c1cc(C(=O)N(C)C)cc2c(=O)cc(N3CCOCC3)oc12 [AZD8186]; conditions: max 10 µM
Procedure, shortened: as §1

Crizotinib = compound: C[C@@H](Oc1cc(-c2cnn(C3CCNCC3)c2)cnc1N)c1c(Cl)ccc(F)c1Cl [Crizotinib]; conditions: max 10 µM
Procedure, shortened: as §1

Savolitinib = compound: C[C@@H](c1ccc2nccn2c1)n1nnc2ncc(-c3cnn(C)c3)nc21 [Savolitinib]; conditions: max 1 µM
Procedure, shortened: as §1

AZD6738 = compound: C[C@@H]1COCCN1C2=NC(=NC(=C2)C3(CC3)[S@](=N)(=O)C)C4=C5C=CNC5=NC=C4 [AZD6738]; conditions: max 10 µM
Procedure, shortened: as §1

AZD5991 = compound: Cc1c2c(nn1C)CSCc1cc(n(C)n1)CSc1cc(c3ccccc3c1)OCCCc1c(C(=O)O)n(C)c3c-2c(Cl)ccc13 [AZD5991]; conditions: max 1 µM
Procedure, shortened: as §1

AZD7648 = compound: Cc1cc2ncnn2cc1Nc1ncc2c(n1)n(C1CCOCC1)c(=O)n2C [AZD7648]; conditions: max 10 µM
Procedure, shortened: as §1

Taselisib = compound: Cc1nc(-c2cn3c(n2)-c2ccc(-c4cnn(C(C)(C)C(N)=O)c4)cc2OCC3)n(C(C)C)n1 [Taselisib]; conditions: max 10 µM
Procedure, shortened: as §1

Selumetinib = compound: Cn1cnc2c(F)c(Nc3ccc(Br)cc3Cl)c(C(=O)NOCCO)cc21 [Selumetinib]; conditions: max 10 µM
Procedure, shortened: as §1

SRA737 = compound: N#Cc1cnc(Nc2cc(NC[C@H]3CNCCO3)c(C(F)(F)F)cn2)cn1 [SRA737]; conditions: max 10 µM
Procedure, shortened: as §1

MK-2206 = compound: NC1(c2ccc(-c3nc4ccn5c(=O)[nH]nc5c4cc3-c3ccccc3)cc2)CCC1 [MK-2206]; conditions: max 10 µM
Procedure, shortened: as §1

Gemcitabine = compound: Nc1ccn([C@@H]2O[C@H](CO)[C@@H](O)C2(F)F)c(=O)n1 [Gemcitabine]; conditions: max 0.3 µM
Procedure, shortened: as §1

[1] = compound: O=C(Nc1ccc2[nH]nc(-c3ccncc3)c2c1)[C@@H]1CCN(CC(=O)N2CCN(c3ccc(-c4ncccn4)cc3)CC2)C1; conditions: max 5 µM
Procedure, shortened: as §1

Olaparib = compound: O=C(c1cc(Cc2n[nH]c(=O)c3ccccc23)ccc1F)N1CCN(C(=O)C2CC2)CC1 [Olaparib]; conditions: max 10 µM
Procedure, shortened: as §1

5-Fluorouracil = compound: O=c1[nH]cc(F)c(=O)[nH]1 [5-Fluorouracil]; conditions: max 20 µM
Procedure, shortened: as §1

Cell Line | IC50, cell viability 72 h (Carboplatin) | IC50, cell viability 72 h (AZD5363) | IC50, cell viability 72 h (AZD1775) | IC50, cell viability 72 h (Trametinib) | IC50, cell viability 72 h (Paclitaxel) | IC50, cell viability 72 h (Palbociclib) | IC50, cell viability 72 h (AZD1390) | IC50, cell viability 72 h (Venetoclax) | IC50, cell viability 72 h (Dasatinib) | IC50, cell viability 72 h (SG3199) | IC50, cell viability 72 h (AZD2811) | IC50, cell viability 72 h (SN-38) | IC50, cell viability 72 h (AZD0156) | IC50, cell viability 72 h (AZD4320) | IC50, cell viability 72 h (Alisertib) | IC50, cell viability 72 h (Etoposide) | IC50, cell viability 72 h (Gefitinib) | IC50, cell viability 72 h (Prexasertib) | IC50, cell viability 72 h (Doxorubicin) | IC50, cell viability 72 h (AZD5153) | IC50, cell viability 72 h (Lapatinib) | IC50, cell viability 72 h (AZD8186) | IC50, cell viability 72 h (Crizotinib) | IC50, cell viability 72 h (Savolitinib) | IC50, cell viability 72 h (AZD6738) | IC50, cell viability 72 h (AZD5991) | IC50, cell viability 72 h (AZD7648) | IC50, cell viability 72 h (Taselisib) | IC50, cell viability 72 h (Selumetinib) | IC50, cell viability 72 h (SRA737) | IC50, cell viability 72 h (MK-2206) | IC50, cell viability 72 h (Gemcitabine) | IC50, cell viability 72 h [1] | IC50, cell viability 72 h (Olaparib) | IC50, cell viability 72 h (5-Fluorouracil)
PANC-02-03 (Pancreatic Carcinoma) | > 10000 nM | > 10000 nM | 1790 nM | 259 nM | 1670 nM | > 10000 nM | > 300 nM | > 1000 nM | > 2000 nM | > 1 nM | > 1000 nM | 137 nM | > 3000 nM | > 1000 nM | > 10000 nM | > 10000 nM | > 10000 nM | 405 nM | > 1000 nM | 494 nM | > 10000 nM | > 10000 nM | > 10000 nM | > 1000 nM | > 10000 nM | > 1000 nM | > 10000 nM | > 10000 nM | > 10000 nM | > 10000 nM | > 10000 nM | > 300 nM | 2930 nM | > 10000 nM | > 20000 nM
PC-14 (Lung Adenocarcinoma) | > 10000 nM | > 10000 nM | 407 nM | 453 nM | 8.94 nM | > 10000 nM | > 300 nM | > 1000 nM | 129 nM | > 1 nM | > 1000 nM | 104 nM | > 3000 nM | > 1000 nM | 2960 nM | > 10000 nM | 127 nM | 25.4 nM | > 1000 nM | > 1000 nM | 1700 nM | > 10000 nM | 6020 nM | > 1000 nM | 2680 nM | > 1000 nM | > 10000 nM | 4700 nM | > 10000 nM | 3330 nM | > 10000 nM | 56.2 nM | > 5000 nM | > 10000 nM | > 20000 nM

— the supplement of paper PMC11061612
